Assay results published in patent US4996217A, “Pyridyl-substituted imidazoles, compositions containing same and methods of use thereof” (Tanabe Seiyaku Company, Ltd., priority 1986, dated 1991).

These compounds were tested on gastrin-induced gastric acid secretion (assay: effect on gastrin-induced gastric acid secretion, oral administration to rats). Settings: dose of 30 mg/kg.
Format: in vivo

SMILES	decrease in gastric acid secretion as compared with non-administered group of rats
CCN(CC)c1ccccc1C[S+]([O-])c1nc2c(n1-c1ccccn1)CCC2 (stereo not drawn) [1,4,5,6-tetrahydro-1-(2-pyridyl)-2-(2-(diethylamino)benzylsulfinyl)cyclopenta(d)imidazole]	more than 70%
Cc1cccnc1-n1ccnc1[S+]([O-])Cc1ccccc1N(C)C (stereo not drawn) [1-(3-methyl-2-pyridyl)-2-(2-(dimethylamino)benzylsulfinyl)imidazole]	more than 70%
[O-][S+](Cc1ccccc1-n1cccc1)c1nccn1-c1ccccn1 (stereo not drawn) [1-(2-pyridyl)-2-(2-(1-pyrrolyl)-benzylsulfinyl)imidazole]	more than 70%

The compounds below were run against T1, H+/K+ ATPase (Sus scrofa, UniProt P19156) (assay: effect on the enzyme activity of H+/K+ ATPase prepared from porcine gastric mucosa). Settings: read-out: IC50 (concentration required to induce 50% inhibition of H+/K+ ATPase enzymatic activity).
T1 construct: prepared from the porcine gastric mucosa; from tissue; host or cells: porcine gastric mucosa
Format: biochemical

T1 sequence (P19156 2-1034 limits assumed): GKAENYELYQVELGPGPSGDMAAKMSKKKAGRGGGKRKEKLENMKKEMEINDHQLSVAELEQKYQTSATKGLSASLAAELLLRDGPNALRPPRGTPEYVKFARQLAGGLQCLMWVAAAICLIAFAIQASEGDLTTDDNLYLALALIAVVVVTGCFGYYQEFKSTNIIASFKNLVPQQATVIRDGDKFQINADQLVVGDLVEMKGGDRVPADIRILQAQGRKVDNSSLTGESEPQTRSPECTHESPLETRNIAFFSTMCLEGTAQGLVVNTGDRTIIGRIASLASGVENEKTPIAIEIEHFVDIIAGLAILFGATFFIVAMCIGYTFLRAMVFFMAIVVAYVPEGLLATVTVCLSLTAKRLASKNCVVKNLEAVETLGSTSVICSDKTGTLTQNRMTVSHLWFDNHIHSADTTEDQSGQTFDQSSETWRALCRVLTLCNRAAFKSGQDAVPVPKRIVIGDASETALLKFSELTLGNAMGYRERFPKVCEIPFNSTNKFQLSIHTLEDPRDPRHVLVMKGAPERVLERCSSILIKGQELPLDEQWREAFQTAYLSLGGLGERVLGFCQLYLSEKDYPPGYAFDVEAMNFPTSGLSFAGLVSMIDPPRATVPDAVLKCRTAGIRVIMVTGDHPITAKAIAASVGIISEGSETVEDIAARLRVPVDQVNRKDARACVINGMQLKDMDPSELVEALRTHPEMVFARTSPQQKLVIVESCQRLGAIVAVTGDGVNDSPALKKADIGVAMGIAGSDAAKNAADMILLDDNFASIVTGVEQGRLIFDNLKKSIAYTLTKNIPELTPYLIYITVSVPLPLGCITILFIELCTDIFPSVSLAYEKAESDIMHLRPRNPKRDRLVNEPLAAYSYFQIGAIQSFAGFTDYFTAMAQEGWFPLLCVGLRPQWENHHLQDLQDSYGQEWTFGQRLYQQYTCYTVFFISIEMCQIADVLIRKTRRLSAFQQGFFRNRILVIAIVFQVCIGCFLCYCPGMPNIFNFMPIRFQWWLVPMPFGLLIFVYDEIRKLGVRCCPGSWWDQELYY
T1 sequence (P18434 whole entry partner): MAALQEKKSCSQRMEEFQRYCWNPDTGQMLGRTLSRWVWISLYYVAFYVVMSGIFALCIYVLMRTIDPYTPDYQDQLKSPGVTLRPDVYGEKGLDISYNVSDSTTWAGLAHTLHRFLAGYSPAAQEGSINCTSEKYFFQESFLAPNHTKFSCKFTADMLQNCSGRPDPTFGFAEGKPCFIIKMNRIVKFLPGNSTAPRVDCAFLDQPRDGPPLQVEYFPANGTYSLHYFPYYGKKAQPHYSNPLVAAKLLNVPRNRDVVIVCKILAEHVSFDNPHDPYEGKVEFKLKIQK

IC50	SMILES
< 10 µM	CCN(CC)c1ccccc1C[S+]([O-])c1nccn1-c1cc(OC)cc(C)n1 (stereo not drawn) [1-(4-methoxy-6-methyl-2-pyridyl)-2-(2-(diethylamino)benzylsulfinyl)imidazole]
~10 µM	CCN(CC)c1ccccc1C[S+]([O-])c1nc2c(n1-c1ccccn1)CCC2 (stereo not drawn) [1,4,5,6-tetrahydro-1-(2-pyridyl)-2-(2-(diethylamino)benzylsulfinyl)cyclopenta(d)imidazole]
< 10 µM	[O-][S+](Cc1ccccc1NC1CCCCC1)c1nccn1-c1ccccn1 (stereo not drawn) [1-(2-pyridyl)-2-(2-(cyclohexylamino)benzylsulfinyl)imidazole]
